According to PubChem BioAssay (NCI):
“And” between values parts separate entries of the source, which are not always exact repeats. Identical values can stand only once.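 All cell lines were grown in 96-well plates and treated with compound for 48 hours. Abbreviation: GI50, concentration required for 50% inhibition of growth. The concentration for full growth arrest is given as TGI.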

How the values were obtained:
Assay in all cases: NCI-60 cell line screen, 48 h
786-0 renal = tested on: 786-0 renal
BT-549 breast = tested on: BT-549 breast
CAKI-1 renal = tested on: CAKI-1 renal
KM12 colon = tested on: KM12 colon
M14 melanoma = tested on: M14 melanoma
MALME-3M melanoma = tested on: MALME-3M melanoma
NCI-H460 lung = tested on: NCI-H460 lung
OVCAR-8 ovarian = tested on: OVCAR-8 ovarian
SF-295 CNS = tested on: SF-295 CNS
UACC-62 melanoma = tested on: UACC-62 melanoma

Compound | GI50 (786-0 renal) [µM] | TGI (786-0 renal) | GI50 (BT-549 breast) [µM] | TGI (BT-549 breast) [µM] | GI50 (CAKI-1 renal) [µM] | TGI (CAKI-1 renal) [µM] | GI50 (KM12 colon) [µM] | TGI (KM12 colon) [µM] | GI50 (M14 melanoma) [µM] | TGI (M14 melanoma) [µM] | GI50 (MALME-3M melanoma) [µM] | TGI (MALME-3M melanoma) | GI50 (NCI-H460 lung) [µM] | TGI (NCI-H460 lung) [µM] | GI50 (OVCAR-8 ovarian) [µM] | TGI (OVCAR-8 ovarian) [µM] | GI50 (SF-295 CNS) [µM] | TGI (SF-295 CNS) [µM] | GI50 (UACC-62 melanoma) [µM] | TGI (UACC-62 melanoma) [µM]
CCCCNC(=O)c1cc(NCc2cc(O)ccc2O)ccc1O | 10.8 | 23.2 µM | 3.24 | 13.5 | 10.8 | 23.8 | 14.4 | 57.7 | 19.2 | 43.7 | 11.8 | 27.3 µM | 47.3 | > 100 | 18.1 | 68.8 | 46.2 | > 100 | 13.7 | 27.1
Nc1nc(N)c2c(n1)NC(c1ccccc1)C1CCc3ccccc3C1=N2 (centres undefined) | 5.99 | 19.1 µM | 5.42 | 19.7 | 3.97 | 18.3 | 4.07 | 14.9 | 4.88 | 18 | 2.13 | 17.9 µM | 3.81 | 14.4 | 4.71 | 25.4 | 1.69 | 8.12 | 3.11 | 18.2
Cn1c2ccccc2c2c3[nH][nH]c(=O)c3c3c4ccccc4[nH]c3c21 | 3.06 | 31.6 µM | 1.59 | 5.3 | 2.22 | > 100 | 0.493 | 10.5 | 3.05 | 10 | 5.24 | 29.6 µM | 1.57 | 10.8 | 2.9 | 28 | 3.14 | 10.9 | 2.07 | 5.81
COc1ccc(/C=C2\CN(Cc3cn(CCNc4ccnc5cc(Cl)ccc45)nn3)C/C(=C\c3ccc(OC)c(OC)c3)C2=O)cc1OC | 3.35 | 12.4 µM | 2.16 | 4.84 | 7.22 | > 100 | 1.87 | 3.6 | 3.35 | 12.5 | 2.78 | 6.19 µM | 2.22 | 5.74 | 3.94 | > 100 | 2.41 | 6.1 | 2.14 | 5.39
COc1cc2ncnc(Nc3ccc4c(cnn4Cc4ccccc4)c3)c2cc1OC | 16.7 | > 25 µM | 16.5 | > 25 | 0.385 | > 25 | 18.7 | > 25 | > 25 | > 25 | > 25 | > 25 µM | > 25 | > 25 | > 17.5 | > 25 | > 20.2 | > 25 | > 25 | > 25
N#Cc1c(N)nc(N)nc1N[C@H](c1nc2c(F)ccc(Cl)c2c(=O)n1-c1cccnc1)C1CC1 | 0.363 | 14.5 µM | 0.761 | 17.3 | 1.69 | 26.9 | 14.4 | 34.5 | 13.6 | 41.8 | 10.9 | > 100 µM | 4.95 | > 100 | 15.9 | 44.3 | 1.18 | 13.2 | 1.6 | > 100
C[n+]1c(-c2ccc(/C=N/NC(=O)c3ccc(C(=O)N/N=C/c4ccc(-c5cn6ccccc6[n+]5C)cc4)cc3)cc2)cn2ccccc21 | 126 | 53.7 µM and 252 µM | 874 | > 1000 | > 1000 | > 1000 | > 1000 | > 1000 | 623 | > 1000 | 208 | > 85.6 µM and 422 µM | > 1000 | > 1000 | 184 | 323 | 290 | 944 | 177 | 316
C/C=C/[C@H]1O[C@@H]2C(=C[C@H]1O)C(=O)O[C@H]2C | 13.8 | 28.7 µM | 10.5 | 22.5 | 5.3 | 17.1 | 33.3 | > 78 | 14.7 | 30.6 | 7.59 | 24.2 µM | > 92 | > 100 | 24.8 | > 56.8 | > 82.1 | > 100 | 17.6 | 33.5
CCCCC(=O)N/N=C/c1c(O)ccc2ccccc12 | 3.65 | > 59.2 µM | 0.537 | 6.6 | – | 2.26 | 2.28 | > 100 | 1.82 | 14.6 | 3.06 | 20.3 µM | 1.36 | > 100 | 2.78 | > 100 | 1.83 | 16.5 | 2.3 | 14.2
